# Experimental data published in paper PMC10253456, “Investigating the Contribution of Major Drug-Metabolising Enzymes to Possum-Specific Fertility Control” (International Journal of Molecular Sciences, 2023).
# Read-outs that look alike come from different tables or passages of the source.
# What was measured:
# mice = conditions: EE2 5 µg/kg/day; cited from earlier work
# [1] = test system: fathead minnows (Pimephales promelas); set-up: method as in PMID 17517636; conditions: EE2 5–6 ng/L; cited from earlier work
# testosterone metabolism = test system: testosterone metabolism; set-up: method as in PMID 19336903; conditions: pooled human liver microsomes; cited from earlier work
# UGT2B (heading: UGT2B4) [2] = test: in vitro; conditions: avian (mallards and a swan), pH 7.4
# UGT2B [3] = conditions: avian
# CYP3A [4] = test: CYP3A catalytic activity (erythromycin N-demethylation) in pooled human liver microsomes; conditions: for CYP3A catalytic activity, % of the control: at both estimated IC50 and 2-fold IC50 values (ketoconazole 2.5 and 5 µM)
# UGT2B [5] = test: p-nitrophenol glucuronidation activity in mouse liver microsomes
# CYP3A [6] = test: CYP3A catalytic activity (erythromycin N-demethylation) in mouse liver microsomes; conditions: for Percent control catalytic activity at estimated IC50: compounds without reported IC50 at 1 µM; for CYP3A catalytic activity, % of the control: at both estimated IC50 and 2-fold IC50 values (ketoconazole 2.5 and 5 µM)
# UGT2B (heading: UGT2B4) [7] = test: in vitro; conditions: BALB/c, mouse, pH 7.4
# CYP3A [8] = conditions: avian
# CYP3A [9] = test: CYP3A catalytic activity (erythromycin N-demethylation) in possum liver microsomes; conditions: for Percent control catalytic activity at estimated IC50: compounds without reported IC50 at 1 µM
# UGT2B [10] = test: p-nitrophenol glucuronidation activity in possum liver microsomes; assay type: biochemical, possum (Trichosurus vulpecula); conditions: for p-nitrophenol glucuronidation (UGT2B) activity, % of the control: at estimated IC50 and 2-fold IC50 values
# UGT2B (heading: UGT2B4) [11] = test: as above; assay type: biochemical, possum (Trichosurus vulpecula); conditions: possum (Trichosurus vulpecula), pH 7.4, compound at estimated IC50, read-out: % of control (UGT2B4 catalytic activity at IC50)
# UGT2B [12] = test: p-nitrophenol glucuronidation activity in pooled human liver microsomes
# CYP3A [13] = test: CYP3A catalytic activity with midazolam and triazolam as substrates; conditions: erythromycin vs midazolam and triazolam
# [14] = test system: cineole metabolism in wild possum liver microsomes; set-up: method as in PMID 12593759; conditions: 5 µM ketoconazole; cited from earlier work
# [15] = test system: erythromycin N-demethylation; set-up: method as in PMID 15342469; conditions: pooled human liver microsomes; read-out: concentration reducing erythromycin N-demethylation by ~50% of the control; cited from earlier work
# [16] = compound at estimated 2-fold IC50
# [17] = compound at estimated 2-fold IC50 (5 µM where none reported)
# [18] = mouse, compound at estimated 2-fold IC50
# [19] = mouse liver microsomes, initial screen n=1
# [20] = mouse, compound at estimated 2-fold IC50 (5 µM where none reported)
# [21] = possum liver microsomes, initial screen n=1
# [22] = possum, compound at estimated 2-fold IC50 (5 µM where none reported)
compound,measurement,setting,value
"C#C[C@]1(O)CC[C@H]2[C@@H]3CCc4cc(O)ccc4[C@H]3CC[C@@]21C [EE2, ethinylestradiol]",effect of developmental exposure on behaviour,mice,behavioural masculinisation
same,effect of exposure on fish,[1],feminisation of male fathead minnows
O=c1cc(-c2ccccc2)oc2cc(O)ccc12 [7-Hydroxyflavone],IC50,testosterone metabolism,> 100000 nM
same,activity at 30 min,UGT2B (heading: UGT2B4) [2],150%
same,% of control (UGT2B4 catalytic activity at 2-fold IC50),UGT2B [3]; [16],92 % of control
same,UGT2B4 catalytic activity at 2-fold IC50,UGT2B [3]; [16],0.38 ± 0.12 µmol/mg/min
same,"CYP3A catalytic activity, % of the control",CYP3A [4],> 83 % of the control
same,% of control (catalytic activity at 2-fold IC50),CYP3A [4]; [17],95 % of control
same,Catalytic activity at 2-fold IC50,CYP3A [4]; [17],0.61 nmol/mg/min
same,% of control (UGT2B4 catalytic activity at 2-fold IC50),UGT2B [5]; [18],101 % of control
same,UGT2B4 catalytic activity at 2-fold IC50,UGT2B [5]; [18],2.55 ± 0.18 µmol/mg/min
same,Percent control catalytic activity at estimated IC50,CYP3A [6]; [19],97 percent control
same,Percent control catalytic activity at estimated 2-fold IC50,"CYP3A [6]; mouse liver microsomes, initial screen n=1, compounds without reported IC50 at 5 µM",97 percent control
same,"CYP3A catalytic activity, % of the control",CYP3A [6]; mouse,> 83 % of the control
same,% of control (catalytic activity at 2-fold IC50),CYP3A [6]; [20],90 % of control
same,Catalytic activity at 2-fold IC50,CYP3A [6]; [20],0.40 ± 0.04 nmol/mg/min
same,activity,UGT2B (heading: UGT2B4) [7],100%
same,"CYP3A catalytic activity, % of the control",CYP3A [8]; at both estimated IC50 and 2-fold IC50 values (or 1 and 5 µM),> 83 % of the control
same,% of control (catalytic activity at 2-fold IC50),CYP3A [8]; [17],103 % of control
same,Catalytic activity at 2-fold IC50,CYP3A [8]; [17],0.42 ± 0.07 nmol/mg/min
same,Percent control catalytic activity at estimated IC50,CYP3A [9]; [21],81 percent control
same,Percent control catalytic activity at estimated 2-fold IC50,"CYP3A [9]; possum liver microsomes, initial screen n=1, compounds without reported IC50 at 5 µM",78 percent control
same,"CYP3A catalytic activity, % of the control","CYP3A [9]; possum, at both estimated IC50 and 2-fold IC50 values (or 1 and 5 µM)",> 83 % of the control
same,% of control (catalytic activity at 2-fold IC50),CYP3A [9]; [22],95 % of control
same,Catalytic activity at 2-fold IC50,CYP3A [9]; [22],0.38 ± 0.08 nmol/mg/min
same,"reduced catalytic activity of possum CYP3A, % of the control","CYP3A [9]; possum, mainly at 5 µM or an estimated 2-fold IC50, not significantly different",~ 35 % of the control
same,% of control (UGT2B4 catalytic activity at 2-fold IC50),UGT2B [10]; [16],101 % of control
same,UGT2B4 catalytic activity at 2-fold IC50,UGT2B [10]; [16],3.92 ± 0.02 µmol/mg/min
same,activity at 30 min,UGT2B (heading: UGT2B4) [11],100%
CC(=O)N1CCN(c2ccc(OCC3COC(Cn4ccnc4)(c4ccc(Cl)cc4Cl)O3)cc2)CC1 (stereo not drawn) [Ketoconazole],"p-nitrophenol glucuronidation (UGT2B) activity, % of the control",UGT2B [3]; at estimated IC50 and 2-fold IC50 values,did not significantly reduce UGT2B activity to less than 50% of the control
same,"CYP3A catalytic activity, % of the control",CYP3A [4],80 % of the control
same,"p-nitrophenol glucuronidation (UGT2B) activity, % of the control",UGT2B [5],did not significantly reduce UGT2B activity to less than 50% of the control
same,"p-nitrophenol glucuronidation (UGT2B) activity, % of the control",UGT2B [12],did not significantly reduce UGT2B activity to less than 50% of the control
same,Percent control catalytic activity at estimated IC50,CYP3A [6]; [19],78 percent control
same,"CYP3A catalytic activity, % of the control",CYP3A [6]; mouse,< 50 % of the control
same,Percent control catalytic activity at estimated IC50,CYP3A [9]; [21],76 percent control
same,reduction of catalytic activity of possum CYP3A compared to the control,"CYP3A [9]; possum, ketoconazole 5 µM, not statistically significant",approximately 27%
same,change in the inhibition of the CYP3A enzyme due to substrate choice (present study vs reported study),CYP3A [13],> 100 fold
same,"formation of all hydroxycineole metabolites (9-, 3-, 7-hydroxycineole), % of the control",[14],approximately 25 % of the control
same,IC50,[15],70 nM
same,"p-nitrophenol glucuronidation (UGT2B) activity, % of the control",UGT2B [10],did not significantly reduce UGT2B activity to less than 50% of the control
same,"p-nitrophenol glucuronidation (UGT2B) activity, % of the control",UGT2B [10]; listed as ketoconazole,> 65 % of the control
